In one assay the target is Mcl-1 protein (UniProtKB Q07820) (Homo sapiens (Human), UniProt Q07820). Kind of assay: Inhibition of Mcl-1 by the fluorescence polarisation assay (Example A, Method A). The format is binding. The conditions noted are these: fluorescence polarization assay. In a few lines: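 Protein (5 nM) and fluorescein-tagged peptide tracer (1 nM) incubated with 11-point compound series for 2 h at room temperature in HEPES/NaCl/Tween 20 buffer, pH 7.4, 5% DMSO. Displacement read as decrease in polarisation; IC50 fitted by 4-parameter logistic, converted to Ki (cKi or eKi).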
Chain of Mcl-1 protein (Q07820 whole entry): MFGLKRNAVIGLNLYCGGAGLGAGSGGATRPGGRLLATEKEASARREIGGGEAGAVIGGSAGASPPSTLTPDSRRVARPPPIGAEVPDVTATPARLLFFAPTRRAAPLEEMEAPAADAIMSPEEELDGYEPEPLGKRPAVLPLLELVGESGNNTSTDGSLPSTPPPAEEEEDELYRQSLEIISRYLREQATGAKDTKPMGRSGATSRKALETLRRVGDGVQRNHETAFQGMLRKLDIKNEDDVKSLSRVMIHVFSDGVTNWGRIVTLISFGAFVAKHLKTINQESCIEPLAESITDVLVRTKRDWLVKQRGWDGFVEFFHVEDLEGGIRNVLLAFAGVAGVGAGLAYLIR

Assay [1] deals with H929 multiple myeloma tumor line. Nature of the assay: In vitro cytotoxicity, MTT assay (Example B, Method A). The conditions noted are these: Homo sapiens, NCI-H929, 48 h, H929 cells, 48 hours exposure, read-out: C50. Format: cell-based. How it is done:
The cytotoxicity studies were carried out on the H929 multiple myeloma tumor line.
The cells are distributed onto microplates and exposed to the test compounds for 48 hours. The cell viability is then quantified by a colorimetric assay, the Microculture Tetrazolium Assay (Carmichael et al, Cancer Res. 1987, 47, 939-942).
The results are expressed in C50 which means concentration corresponding to […] of effect/inhibition.
(Tetrazolium assays rely on reduction of a dye to a coloured formazan, in cell work by metabolically active cells.)

Among the data in patent publication US20240150293A1, “SPIROCYCLOHEXANE DERIVATIVES, PHARMACEUTICAL COMPOSITIONS CONTAINING THEM AND THEIR USES AS ANTI-APOPTOTIC INHIBITORS” (LES LABORATOIRES SERVIER, priority 2021, published 2024) are Ki and IC50 values, retold here.

By Ki is commonly meant a measure of affinity in units of concentration, obtained from inhibition or displacement.

Take `O=C(O)[C@]1(Nc2cccc(Cl)c2)CC[C@@]2(CC1)c1ccccc1C[C@H]2C[C@@H](COc1ccncc1)c1ccccc1` [Example 553, (1r,2′R,4R)-4-(3-chloroanilino)-2′-{(2R)-2-phenyl-3-[(pyridin-4-yl)oxy]propyl}-2′,3′-dihydrospiro[cyclohexane-1,1′-indene]-4-carboxylic acid]: the inhibition constant (Ki) at Mcl-1 protein turned out to be 5640 nM. Besides, in assay [1], the IC50 came out at 17500 nM.
As for `O=C(O)[C@]1(Nc2cccc(Cl)c2)CC[C@@]2(CC1)c1ccccc1C[C@H]2C[C@H](COc1ccncc1)c1ccccc1` [Example 554, (1r,2′R,4R)-4-(3-chloroanilino)-2′-{(2S)-2-phenyl-3-[(pyridin-4-yl)oxy]propyl}-2′,3′-dihydrospiro[cyclohexane-1,1′-indene]-4-carboxylic acid], the Ki at Mcl-1 protein worked out at 323 nM. Further, the IC50 in assay [1] came to 30000 nM.
In the case of `O=C(O)[C@]1(Nc2cccc(Cl)c2)CC[C@@]2(CC1)c1ccccc1C[C@@H]2C[C@@H](COc1ccccc1)c1ccccc1` [Example 556, (1r,2′S,4S)-4-(3-chloroanilino)-2′-[(2R)-3-phenoxy-2-phenylpropyl]-2′,3′-dihydrospiro[cyclohexane-1,1′-indene]-4-carboxylic acid], at Mcl-1 protein, the Ki stood at 7190 nM. In addition, the IC50 in assay [1] was found to be 19300 nM.
`O=C(O)[C@]1(Nc2cccc(Cl)c2)CC[C@@]2(CC1)c1ccccc1C[C@H]2C[C@H](COc1ccccc1)c1ccccc1` [Example 557, (1r,2′R,4R)-4-(3-chloroanilino)-2′-[(2S)-3-phenoxy-2-phenylpropyl]-2′,3′-dihydrospiro[cyclohexane-1,1′-indene]-4-carboxylic acid]: the Ki at Mcl-1 protein turned out to be 1270 nM. Besides, the IC50 in assay [1] stood at 20100 nM.
Turning to `C[C@@H](COc1cccnc1)C[C@H]1Cc2ccccc2[C@]12CC[C@@](Nc1cccc(Cl)c1)(C(=O)O)CC2` [Example 568, (1r,2′S,4S)-4-(3-chloroanilino)-2′-{(2R)-2-methyl-3-[(pyridin-3-yl)oxy]propyl}-2′,3′-dihydrospiro[cyclohexane-1,1′-indene]-4-carboxylic acid], on Mcl-1 protein, the Ki was found to be 438 nM. Besides, the IC50 in assay [1] is 18300 nM.
As to `CNc1cccc(OC[C@H](C)C[C@H]2Cc3ccccc3[C@]23CC[C@@](Nc2cccc(Cl)c2)(C(=O)O)CC3)c1` [Example 569, (1r,2′S,4S)-4-(3-chloroanilino)-2′-{(2R)-2-methyl-3-[3-(methylamino)phenoxy]propyl}-2′,3′-dihydrospiro[cyclohexane-1,1′-indene]-4-carboxylic acid], the Ki at Mcl-1 protein amounted to 74.3 nM. The IC50 in assay [1] stood at 1720 nM.
With `C[C@@H](COc1ccncc1C1CC1(C)C)C[C@H]1Cc2ccccc2[C@]12CC[C@@](Nc1cccc(Cl)c1)(C(=O)O)CC2` (stereo partly drawn) [Example 580, (1r,2′S,4S)-4-(3-chloroanilino)-2′-[(2R)-3-{[3-(2,2-dimethylcyclopropyl)pyridin-4-yl]oxy}-2-methylpropyl]-2′,3′-dihydrospiro[cyclohexane-1,1′-indene]-4-carboxylic acid], at Mcl-1 protein, the Ki was determined as 92.7 nM. In assay [1], the IC50 stood at 5120 nM.
Consider `C[C@@H](COc1ccncc1)C[C@H]1Cc2ccccc2[C@]12CC[C@@](Nc1cccc(Cl)c1)(C(=O)O)CC2` [Example 582, (1r,2′S,4S)-4-(3-chloroanilino)-2′-{(2R)-2-methyl-3-[(pyridin-4-yl)oxy]propyl}-2′,3′-dihydrospiro[cyclohexane-1,1′-indene]-4-carboxylic acid], for which, at Mcl-1 protein, the Ki is 51.9 nM. Also, the IC50 in assay [1] is 2550 nM.
Taken in the same sequence, the figures for `CNc1cc(OC[C@H](C)C[C@H]2Cc3ccccc3[C@]23CC[C@@](Nc2cccc(Cl)c2)(C(=O)O)CC3)ccn1` [Example 585, (1r,2′S,4S)-4-(3-chloroanilino)-2′-[(2R)-2-methyl-3-{[2-(methylamino)pyridin-4-yl]oxy}propyl]-2′,3′-dihydrospiro[cyclohexane-1,1′-indene]-4-carboxylic acid] were 36 nM and 2610 nM.
Taken in the same sequence, the figures for `C[C@@H](COc1ccnc2ccsc12)C[C@@H]1Cc2ccccc2[C@]12CC[C@@](Nc1cccc(Cl)c1)(C(=O)O)CC2` [Example 590, (1r,2′R,4R)-4-(3-chloroanilino)-2′-{(2R)-2-methyl-3-[(thieno[3,2-b]pyridin-7-yl)oxy]propyl}-2′,3′-dihydrospiro[cyclohexane-1,1′-indene]-4-carboxylic acid] were 19.2 nM and 1170 nM.
The matching figures for `C[C@@H](COc1ncnc2c1CCC2)CC1Cc2ccccc2[C@]12CC[C@@](Nc1cccc(Cl)c1)(C(=O)O)CC2` (stereo partly drawn) [Example 593, (1r,4R)-4-(3-chloroanilino)-2′-{(2R)-3-[(6,7-dihydro-5H-cyclopenta[d]pyrimidin-4-yl)oxy]-2-methylpropyl}-2′,3′-dihydrospiro[cyclohexane-1,1′-indene]-4-carboxylic acid]: 14.5 nM and 2010 nM.
As for `C[C@@H](COc1ncnc2c1C(C)(C)CC2)CC1Cc2ccccc2[C@]12CC[C@@](Nc1cccc(Cl)c1)(C(=O)O)CC2` (stereo partly drawn) [Example 595, (1r,4R)-4-(3-chloroanilino)-2′-{(2R)-3-[(5,5-dimethyl-6,7-dihydro-5H-cyclopenta[d]pyrimidin-4-yl)oxy]-2-methylpropyl}-2′,3′-dihydrospiro[cyclohexane-1,1′-indene]-4-carboxylic acid], the Ki on Mcl-1 protein stood at 29.9 nM. Besides, the IC50 in assay [1] worked out at 1510 nM.
For `C[C@@H](COc1ccnc2c1CCC2)CC1Cc2ccccc2[C@]12CC[C@@](Nc1ccccc1)(C(=O)O)CC2` (stereo partly drawn) [Example 596, (1r,4R)-4-anilino-2′-{(2R)-3-[(6,7-dihydro-5H-cyclopenta[b]pyridin-4-yl)oxy]-2-methylpropyl}-2′,3′-dihydrospiro[cyclohexane-1,1′-indene]-4-carboxylic acid], at Mcl-1 protein, the Ki is 31.2 nM. Moreover, the IC50 in assay [1] turned out to be 1820 nM.
The matching figures for `C[C@@H](COc1ccnc2sccc12)C[C@H]1Cc2ccccc2[C@]12CC[C@@](Nc1cccc(Cl)c1)(C(=O)O)CC2` [Example 604, (1r,2′S,4S)-4-(3-chloroanilino)-2′-{(2R)-2-methyl-3-[(thieno[2,3-b]pyridin-4-yl)oxy]propyl}-2′,3′-dihydrospiro[cyclohexane-1,1′-indene]-4-carboxylic acid]: 30 nM and 694 nM.
As for `Cc1csc2nccc(OC[C@H](C)C[C@H]3Cc4ccccc4[C@]34CC[C@@](Nc3cccc(Cl)c3)(C(=O)O)CC4)c12` [Example 605, (1r,2′S,4S)-4-(3-chloroanilino)-2′-{(2R)-2-methyl-3-[(3-methylthieno[2,3-b]pyridin-4-yl)oxy]propyl}-2′,3′-dihydrospiro[cyclohexane-1,1′-indene]-4-carboxylic acid], the inhibitory constant (Ki) at Mcl-1 protein worked out at 24.2 nM. Also, the IC50 in assay [1] is 906 nM.
As to `C[C@@H](COc1ccnc2occc12)C[C@H]1Cc2ccccc2[C@]12CC[C@@](Nc1cccc(Cl)c1)(C(=O)O)CC2` [Example 606, (1r,2′S,4S)-4-(3-chloroanilino)-2′-{(2R)-3-[(furo[2,3-b]pyridin-4-yl)oxy]-2-methylpropyl}-2′,3′-dihydrospiro[cyclohexane-1,1′-indene]-4-carboxylic acid], on Mcl-1 protein, the Ki came out at 77.3 nM. For the same molecule, in assay [1], the IC50 stood at 2140 nM.
